Measurements taken from PubChem BioAssay AID330 (DTP/NCI, 2004).
“And” between values parts separate entries of the source, which are not always exact repeats. Equal values may be shown once. Toxic doses and inconclusive results are not listed.

Tested on: P388 leukemia ip, CD2F1 mice, survival T/C
Experiment: NCI In Vivo Anticancer Drug Screen. Data for tumor model P388 Leukemia (intraperitoneal) in CD2F1 (CDF1) mice
Conditions: endpoint: median survival time, higher = longer survival
How it was run: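 Mice carrying the transplanted tumor received test compound or vehicle. Survival was recorded in each group, and the value is the treated-group measurement divided by that of the vehicle-treated control group.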

[1] = dose: 50.0 mg/kg/injection, schedule: Q01DX009 (ip), vehicle: saline with Tween-80
[2] = dose: 100.0 mg/kg/injection, schedule: Q01DX009 (ip), vehicle: saline with Tween-80
[3] = dose: 200.0 mg/kg/injection, schedule: Q01DX009 (ip), vehicle: saline with Tween-80
[4] = dose: 25.0 mg/kg/injection, schedule: Q01DX009 (ip), vehicle: saline with Tween-80
[5] = dose: 50.0 mg/kg/injection, schedule: Q01DX005 (ip), vehicle: Klucel (hydroxypropylcellulose) (HPC)
[6] = dose: 100.0 mg/kg/injection, schedule: Q01DX005 (ip), vehicle: Klucel (hydroxypropylcellulose) (HPC)
[7] = dose: 50.0 mg/kg/injection, schedule: Q01DX009 (ip), vehicle: saline
[8] = dose: 50.0 mg/kg/injection, schedule: Q01DX005 (ip), vehicle: saline with Tween-80
[9] = dose: 100.0 mg/kg/injection, schedule: Q01DX005 (ip), vehicle: saline with Tween-80
[10] = dose: 200.0 mg/kg/injection, schedule: Q01DX005 (ip), vehicle: saline with Tween-80
[11] = dose: 60.0 mg/kg/injection, schedule: Q01DX005 (ip), vehicle: saline with Tween-80
[12] = dose: 120.0 mg/kg/injection, schedule: Q01DX005 (ip), vehicle: saline with Tween-80
[13] = dose: 240.0 mg/kg/injection, schedule: Q01DX005 (ip), vehicle: saline with Tween-80
[14] = dose: 100.0 mg/kg/injection, schedule: Q04DX003 (ip), vehicle: Klucel (hydroxypropylcellulose) (HPC)
[15] = dose: 200.0 mg/kg/injection, schedule: Q04DX003 (ip), vehicle: Klucel (hydroxypropylcellulose) (HPC)
[16] = dose: 400.0 mg/kg/injection, schedule: Q04DX003 (ip), vehicle: Klucel (hydroxypropylcellulose) (HPC)
[17] = dose: 50.0 mg/kg/injection, schedule: Q01DX005 (ip), vehicle: saline
[18] = dose: 100.0 mg/kg/injection, schedule: Q01DX005 (ip), vehicle: saline
[19] = dose: 200.0 mg/kg/injection, schedule: Q01DX005 (ip), vehicle: saline

Structure (SMILES): NC1=NN(O)C2=CC([N+](=O)[O-])C=CC2=N1 (configuration not stated)
- T/C [1]: 101 % of control
- T/C [2]: 110 % of control
- T/C [3]: 97 % of control

Structure (SMILES): CCOc1ccc(S(=O)(=O)c2ccc(C)cc2)c2c1no[n+]2[O-]
- T/C (dose: 3.75 mg/kg/injection, schedule: Q01DX009 (ip), vehicle: saline with Tween-80): 101 % of control
- T/C (dose: 7.5 mg/kg/injection, schedule: Q01DX009 (ip), vehicle: saline with Tween-80): 99 % of control and 95 % of control
- T/C (dose: 15.0 mg/kg/injection, schedule: Q01DX009 (ip), vehicle: saline with Tween-80): 107 % of control

Structure (SMILES): CCCCN1CN(CCCC)CN(C(=S)c2c(Cl)cccc2Cl)C1
- T/C [4]: 102 % of control
- T/C [1]: 102 % of control
- T/C [2]: 105 % of control

Structure (SMILES): Cc1cn(C2OC(CO)C(O)C2O)c(=O)nc1N (configuration not stated)
- T/C (dose: 25.0 mg/kg/injection, schedule: Q01DX005 (ip), vehicle: water): 104 % of control
- T/C (dose: 50.0 mg/kg/injection, schedule: Q01DX005 (ip), vehicle: water): 101 % of control
- T/C (dose: 100.0 mg/kg/injection, schedule: Q01DX005 (ip), vehicle: water): 100 % of control
- T/C (dose: 200.0 mg/kg/injection, schedule: Q01DX005 (ip), vehicle: water): 96 % of control

Structure (SMILES): CCCC/C=C/[Se]c1ccccc1
- T/C [4]: 101 % of control
- T/C [1]: 151 % of control
- T/C [2]: 109 % of control

Structure (SMILES): N#CC1(C#N)C2C=CC(C2)N1OC(=O)c1ccc([N+](=O)[O-])cc1 (configuration not stated)
- T/C [1]: 95 % of control
- T/C [2]: 92 % of control
- T/C [3]: 95 % of control

Structure (SMILES): O=C1OCC23CC(=O)C(O)(c4oc(CO)cc(=O)c4O)C(CC12)O3 (configuration not stated)
- T/C [4]: 97 % of control
- T/C [1]: 100 % of control
- T/C [2]: 100 % of control

Structure (SMILES): O=C1OCc2cc(O)ccc21
- T/C [5]: 102 % of control
- T/C [6]: 100 % of control
- T/C (dose: 200.0 mg/kg/injection, schedule: Q01DX005 (ip), vehicle: Klucel (hydroxypropylcellulose) (HPC)): 104 % of control

Structure (SMILES): S=C(Nc1ccccn1)c1ccccn1
- T/C [1]: 95 % of control
- T/C [7]: 105 % of control
- T/C [2]: 88 % of control
- T/C (dose: 100.0 mg/kg/injection, schedule: Q01DX009 (ip), vehicle: saline): 103 % of control
- T/C (dose: 200.0 mg/kg/injection, schedule: Q01DX009 (ip), vehicle: saline): 103 % of control

Structure (SMILES): O=C(NCCCCCNC(=O)C12CC3CC(CC(C3)C1)C2)C12CC3CC(CC(C3)C1)C2
- T/C [5]: 90 % of control
- T/C [8]: 102 % of control
- T/C [6]: 89 % of control
- T/C [9]: 105 % of control
- T/C [10]: 95 % of control

Structure (SMILES): COc1ccc2c(c1)C(=O)C1(CC2)OC1c1ccncc1 (configuration not stated)
- T/C (dose: 100.0 mg/kg/injection, schedule: Q01DX009 (ip), vehicle: Klucel (hydroxypropylcellulose) (HPC)): 97 % of control
- T/C (dose: 200.0 mg/kg/injection, schedule: Q01DX009 (ip), vehicle: Klucel (hydroxypropylcellulose) (HPC)): 100 % of control

Structure (SMILES): O=C(c1ccccc1)C1COc2ccccc2C1O (configuration not stated)
- T/C [11]: 109 % of control
- T/C [12]: 94 % of control
- T/C [13]: 94 % of control

Structure (SMILES): O=S(=O)(CCCl)c1ccccc1
- T/C [14]: 104 % of control
- T/C [15]: 106 % of control
- T/C [16]: 97 % of control

Structure (SMILES): NC(=S)c1ccc(C=Nc2ccc(C(N)=S)cc2)cc1
- T/C (dose: 100.0 mg/kg/injection, schedule: Q01DX001 (ip), vehicle: Klucel (hydroxypropylcellulose) (HPC)): 87 % of control
- T/C (dose: 200.0 mg/kg/injection, schedule: Q01DX001 (ip), vehicle: Klucel (hydroxypropylcellulose) (HPC)): 91 % of control
- T/C (dose: 400.0 mg/kg/injection, schedule: Q01DX001 (ip), vehicle: Klucel (hydroxypropylcellulose) (HPC)): 88 % of control

Structure (SMILES): CC1(C)COC(=O)/C1=C\C#N
- T/C (dose: 50.0 mg/kg/injection, schedule: Q04DX003 (ip), vehicle: Klucel (hydroxypropylcellulose) (HPC)): 94 % of control and 98 % of control
- T/C [14]: 105 % of control
- T/C (dose: 100.0 mg/kg/injection, schedule: Q04DX003 (ip), vehicle: saline): 101 % of control
- T/C [15]: 100 % of control and 97 % of control
- T/C (dose: 200.0 mg/kg/injection, schedule: Q04DX003 (ip), vehicle: saline): 111 % of control
- T/C [16]: 105 % of control
- T/C (dose: 400.0 mg/kg/injection, schedule: Q04DX003 (ip), vehicle: saline): 120 % of control

Structure (SMILES): C[n+]1ccccc1C#N
- T/C (dose: 12.5 mg/kg/injection, schedule: Q01DX009 (ip), vehicle: saline): 109 % of control
- T/C (dose: 25.0 mg/kg/injection, schedule: Q01DX009 (ip), vehicle: saline): 104 % of control
- T/C [7]: 104 % of control

Structure (SMILES): CN(C)CC1CCCC(CN(C)C)C1O (configuration not stated)
- T/C [17]: 99 % of control
- T/C [18]: 94 % of control
- T/C [19]: 93 % of control

Structure (SMILES): O=c1[nH]c2cc(Cl)ccc2nc1/C=C(\O)c1cccc([N+](=O)[O-])c1
- T/C (dose: 60.0 mg/kg/injection, schedule: Q01DX005 (ip), vehicle: Klucel (hydroxypropylcellulose) (HPC)): 102 % of control
- T/C (dose: 120.0 mg/kg/injection, schedule: Q01DX005 (ip), vehicle: Klucel (hydroxypropylcellulose) (HPC)): 97 % of control
- T/C (dose: 240.0 mg/kg/injection, schedule: Q01DX005 (ip), vehicle: Klucel (hydroxypropylcellulose) (HPC)): 101 % of control

Structure (SMILES): CCOP(=O)(CC(=O)NC(C(N)=O)C(C)C)OCC (configuration not stated)
- T/C [8]: 101 % of control
- T/C [9]: 104 % of control
- T/C [10]: 105 % of control

Structure (SMILES): CN(C)C(=O)n1cnc([N+](=O)[O-])c1
- T/C (dose: 100.0 mg/kg/injection, schedule: Q01DX001 (ip), vehicle: saline with Tween-80): 97 % of control
- T/C (dose: 200.0 mg/kg/injection, schedule: Q01DX001 (ip), vehicle: saline with Tween-80): 112 % of control

Structure (SMILES): Nc1ncnc2c1C=C(B(O)O)B(O)N2
- T/C (dose: 6.25 mg/kg/injection, schedule: Q01DX009 (ip), vehicle: Klucel (hydroxypropylcellulose) (HPC)): 97 % of control
- T/C (dose: 12.5 mg/kg/injection, schedule: Q01DX009 (ip), vehicle: Klucel (hydroxypropylcellulose) (HPC)): 99 % of control
- T/C (dose: 25.0 mg/kg/injection, schedule: Q01DX009 (ip), vehicle: Klucel (hydroxypropylcellulose) (HPC)): 104 % of control

Structure (SMILES): CCOC(=O)CC1=CSC(=C(C(=O)OCC)C(=O)OCC)N1c1ccccc1
- T/C [8]: 96 % of control
- T/C [9]: 91 % of control
- T/C [10]: 86 % of control

Structure (SMILES): NC(=O)c1nc2c(Nc3cccc(Cl)c3)nc(N)nc2nc1N
- T/C (dose: 100.0 mg/kg/injection, schedule: Q01DX001 (ip), vehicle: saline): 100 % of control
- T/C (dose: 200.0 mg/kg/injection, schedule: Q01DX001 (ip), vehicle: saline): 104 % of control
- T/C (dose: 400.0 mg/kg/injection, schedule: Q01DX001 (ip), vehicle: saline): 104 % of control

Structure (SMILES): COC(=O)C(=C\c1nc2ccc([N+](=O)[O-])cc2s1)/C(C(=O)OC)=C1\CCCN1C
- T/C [17]: 100 % of control
- T/C [18]: 97 % of control
- T/C [19]: 97 % of control

Structure (SMILES): CN(C)CCNc1cccc2sc3ccc(O)cc3c(=O)c12
- T/C (dose: 12.5 mg/kg/injection, schedule: Q01DX005 (ip), vehicle: saline with Tween-80): 113 % of control
- T/C (dose: 25.0 mg/kg/injection, schedule: Q01DX005 (ip), vehicle: saline with Tween-80): 115 % of control and 123 % of control
- T/C [8]: 123 % of control and 124 % of control

Structure (SMILES): [Cu+2].[NH-]C(CCC(N)=O)C(=O)O.[NH-]C(CCC(N)=O)C(=O)O (configuration not stated)
- T/C (dose: 6.25 mg/kg/injection, schedule: Q04DX003 (ip), vehicle: saline): 100 % of control
- T/C (dose: 12.5 mg/kg/injection, schedule: Q04DX003 (ip), vehicle: saline): 90 % of control

Structure (SMILES): Cc1ccc2c(c1)C(=Nc1ccc(Cl)cc1)C(=O)N2
- T/C (dose: 0.93 mg/kg/injection, schedule: Q01DX005 (ip), vehicle: saline with Tween-80): 101 % of control
- T/C (dose: 1.87 mg/kg/injection, schedule: Q01DX005 (ip), vehicle: saline with Tween-80): 93 % of control
- T/C (dose: 3.75 mg/kg/injection, schedule: Q01DX005 (ip), vehicle: saline with Tween-80): 87 % of control
- T/C (dose: 15.0 mg/kg/injection, schedule: Q01DX005 (ip), vehicle: saline with Tween-80): 87 % of control
- T/C [11]: 99 % of control
- T/C [12]: 87 % of control
- T/C [13]: 95 % of control

Structure (SMILES): O=[N+]([O-])c1ccc(C(Cl)Cc2ccc(Cl)cc2)cc1 (configuration not stated)
- T/C [11]: 102 % of control
- T/C [12]: 90 % of control
- T/C [13]: 94 % of control

Structure (SMILES): CN(CCCCC(O)CN(C)C(=S)S)C(=S)S (configuration not stated)
- T/C [17]: 98 % of control
- T/C [18]: 102 % of control
- T/C [19]: 98 % of control
